Source: patent US7772241B2, “Variolin derivatives and their use as antitumor agents” (Pharma Mar S.A., priority 2001, dated 2010)

What was measured:
DU-145 = experiment: Inhibition of cells growth by colorimetric (SRB) assay, DU-145; settings: for GI50 / CC50: Homo sapiens, DU-145, 48 h; for GI50: read-out: DU-145 GI50, SRB assay, 48 hours exposure; for CC50: read-out: DU-145 LC50, SRB assay, 48 hours exposure; for DU-145 TGI: SRB assay, 48 hours exposure
Procedure, shortened: (§1)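 Read-out is sulforhodamine B protein stain (OD 490 nm) after cold TCA fixation, following 48 h continuous exposure to samples spanning 10 to 10^−8 μg/ml.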

HT-29 = experiment: Inhibition of cells growth by colorimetric (SRB) assay, HT-29; settings: for GI50 / CC50: Homo sapiens, HT-29, 48 h; for GI50: read-out: HT-29 GI50, SRB assay, 48 hours exposure; for CC50: read-out: HT-29 LC50, SRB assay, 48 hours exposure; for HT-29 TGI: SRB assay, 48 hours exposure
Procedure, shortened: as §1

A-549 = experiment: Inhibition of cells growth by colorimetric (SRB) assay, A-549; settings: for GI50 / CC50: Homo sapiens, A549, 48 h; for GI50: read-out: A-549 GI50, SRB assay, 48 hours exposure; for CC50: read-out: A-549 LC50, SRB assay, 48 hours exposure; for A-549 TGI: SRB assay, 48 hours exposure
Procedure, shortened: as §1

LoVo-Dox = experiment: Inhibition of cells growth by colorimetric (SRB) assay, LoVo-Dox; settings: for GI50 / CC50: Homo sapiens, 48 h; for GI50: read-out: LOVO-DOX GI50, SRB assay, 48 hours exposure; for CC50: read-out: LOVO-DOX LC50, SRB assay, 48 hours exposure; for LOVO-DOX TGI: SRB assay, 48 hours exposure
Procedure, shortened: as §1

HeLa = experiment: Inhibition of cells growth by colorimetric (SRB) assay, HeLa; settings: for GI50: Homo sapiens, HeLa, 48 h, read-out: HELA GI50, SRB assay, 48 hours exposure; for HELA TGI: SRB assay, 48 hours exposure
From the text: (§2) The finality of these assays is to interrupt the growth of a “in vitro” tumor cell culture by means a continued exhibition of the cells to the sample to be testing.
(§3) This form of the assay employs 96 well cell culture microplates of 9 mm diameter (Faircloth, 1988; Mosmann, 1983). Most of the cell lines are obtained from American Type Culture Collection (ATCC) derived from different human cancer types.
(§4) Cells are maintained in RPMI 1640 10% FBS, supplemented with 0.1 g/l penicillin and 0.1 g/l streptomycin sulphate and then incubated at 37° C., 5% CO2 and 98% humidity. For the experiments, cells were harvested from subconfluent cultures using trypsin and resuspended in fresh medium before plating.
(§5) Cells are seeded in 96 well microtiter plates, at 5×10^3 cells per well in aliquots of 195 μl medium, and they are allowed to attach to the plate surface by growing in drug free medium for 18 hours. Afterward, samples are added in aliquots of 5 μl in a ranging from 10 to 10^−8 μg/ml, dissolved in DMSO/EtOH/PBS (0.5:0.5:99). After 48 hours exposure, the antitumor effect are measured by the SRB methodology: cells are fixed by adding 50 μl of cold 50% (wt/vol) trichloroacetic acid (TCA) and incubating for 60 minutes at 4° C. Plates are washed with deionized water and dried. One hundred μl of SRB solution (0.4% wt/vol in 1% acetic acid) is added to each microtiter well and incubated for 10 minutes at room temperature. Unbound SRB is removed by washing with 1% acetic acid. Plates are air dried and bound stain is solubilized with Tris buffer. Optical densities are read on a automated spectrophotometric plate reader at a single wavelength of 490 nm.
(§6) The values for mean +/−SD of data from triplicate wells are calculated. Some parameters for cellular responses can be calculated: GI=growth inhibition, TGI=total growth inhibition (cytostatic effect) and LC=cell killing (cytotoxic effect).

LNCaP = experiment: Inhibition of cells growth by colorimetric (SRB) assay, LNCaP; settings: for GI50 / CC50: Homo sapiens, LNCaP, 48 h; for GI50: read-out: LN-caP GI50, SRB assay, 48 hours exposure; for CC50: read-out: LN-caP LC50, SRB assay, 48 hours exposure; for LN-caP TGI: SRB assay, 48 hours exposure
Procedure, shortened: as §1

IGROV-ET = experiment: Inhibition of cells growth by colorimetric (SRB) assay, IGROV-ET; settings: for GI50 / CC50: Homo sapiens, 48 h; for GI50: read-out: IGROV-ET GI50, SRB assay, 48 hours exposure; for CC50: read-out: IGROV-ET LC50, SRB assay, 48 hours exposure; for IGROV-ET TGI: SRB assay, 48 hours exposure
Procedure, shortened: as §1

SK-MEL-28 = experiment: Inhibition of cells growth by colorimetric (SRB) assay, SK-MEL-28; settings: for GI50 / CC50: Homo sapiens, SK-MEL-28, 48 h; for GI50: read-out: MEL-28 GI50, SRB assay, 48 hours exposure; for CC50: read-out: MEL-28 LC50, SRB assay, 48 hours exposure; for MEL-28 TGI: SRB assay, 48 hours exposure
Procedure, shortened: as §1

SK-BR-3 = experiment: Inhibition of cells growth by colorimetric (SRB) assay, SK-BR-3; settings: for GI50 / CC50: Homo sapiens, SK-BR-3, 48 h; for GI50: read-out: SK-BR-3 GI50, SRB assay, 48 hours exposure; for CC50: read-out: SK-BR-3 LC50, SRB assay, 48 hours exposure; for SK-BR-3 TGI: SRB assay, 48 hours exposure
Procedure, shortened: as §1

PANC-1 = experiment: Inhibition of cells growth by colorimetric (SRB) assay, PANC-1; settings: for GI50 / CC50: Homo sapiens, PANC-1, 48 h; for GI50: read-out: PANC-1 GI50, SRB assay, 48 hours exposure; for CC50: read-out: PANC-1 LC50, SRB assay, 48 hours exposure; for PANC-1 TGI: SRB assay, 48 hours exposure
Procedure, shortened: as §1

IGROV-1 = experiment: Inhibition of cells growth by colorimetric (SRB) assay, IGROV-1; settings: for GI50 / CC50: Homo sapiens, IGROV-1, 48 h; for GI50: read-out: IGROV GI50, SRB assay, 48 hours exposure; for CC50: read-out: IGROV LC50, SRB assay, 48 hours exposure; for IGROV TGI: SRB assay, 48 hours exposure
Procedure, shortened: as §1

K-562 = experiment: Inhibition of cells growth by colorimetric (SRB) assay, K-562; settings: for GI50 / CC50: Homo sapiens, K562, 48 h; for GI50: read-out: K-562 GI50, SRB assay, 48 hours exposure; for CC50: read-out: K-562 LC50, SRB assay, 48 hours exposure; for K-562 TGI: SRB assay, 48 hours exposure
Procedure, shortened: as §1

LoVo = experiment: Inhibition of cells growth by colorimetric (SRB) assay, LoVo; settings: for GI50 / CC50: Homo sapiens, LoVo, 48 h; for GI50: read-out: LOVO GI50, SRB assay, 48 hours exposure; for CC50: read-out: LOVO LC50, SRB assay, 48 hours exposure; for LOVO TGI: SRB assay, 48 hours exposure
Procedure, shortened: as §1

HeLa-APL = experiment: Inhibition of cells growth by colorimetric (SRB) assay, HeLa-APL; settings: for GI50 / CC50: Homo sapiens, 48 h; for GI50: read-out: HELA-APL GI50, SRB assay, 48 hours exposure; for CC50: read-out: HELA-APL LC50, SRB assay, 48 hours exposure; for HELA-APL TGI: SRB assay, 48 hours exposure
From the text: as §2, §3, §4, §5, §6

In the case of `CSc1nccc(-c2c3c(N)ccnc3n3c(N)nccc23)n1.Cl` [Compound 93], the GI50 (DU-145) is reported as 64.6 nM, the CC50 (DU-145) is reported as 2330 nM and the “DU-145 TGI” value (DU-145) is reported as 4.16E−07. The GI50 (HT-29) was 176 nM, the CC50 (HT-29) was 25200 nM and the “HT-29 TGI” value (HT-29) was 1.32E−06. For the same compound, the GI50 (A-549) was 249 nM, the CC50 (A-549) was 5980 nM and the “A-549 TGI” value (A-549) was 9.34E−07. For the same compound, the GI50 (LoVo-Dox) was 699 nM, the CC50 (LoVo-Dox) was 25200 nM and the “LOVO-DOX TGI” value (LoVo-Dox) was 1.68E−06. For the same compound, the GI50 (HeLa) was 2.52 nM, the “HELA TGI” value (HeLa) was 5.10E−09 and the GI50 (LNCaP) was 127 nM. The CC50 (LNCaP) was 1670 nM, the “LN-caP TGI” value (LNCaP) was 3.68E−07 and the GI50 (IGROV-ET) was 860 nM. The CC50 (IGROV-ET) was 2520 nM, the “IGROV-ET TGI” value (IGROV-ET) was 2.09E−06 and the GI50 (SK-MEL-28) was 767 nM. For the same compound, the CC50 (SK-MEL-28) was 10700 nM, the “MEL-28 TGI” value (SK-MEL-28) was 3.71E−06 and the GI50 (SK-BR-3) was 326 nM. For the same compound, the CC50 (SK-BR-3) was 15600 nM, the “SK-BR-3 TGI” value (SK-BR-3) was 1.59E−06 and the GI50 (PANC-1) was 220 nM. For the same compound, the CC50 (PANC-1) was 25200 nM, the “PANC-1 TGI” value (PANC-1) was 2.78E−06 and the GI50 (IGROV-1) was 144 nM. For the same compound, the CC50 (IGROV-1) was 25200 nM, the “IGROV TGI” value (IGROV-1) was 8.76E−07 and the GI50 (K-562) was 898 nM. The CC50 (K-562) was 25200 nM, the “K-562 TGI” value (K-562) was 1.57E−06 and the GI50 (LoVo) was 984 nM. The CC50 (LoVo) was 17400 nM, the “LOVO TGI” value (LoVo) was 3.84E−06 and the GI50 (HeLa-APL) was 4.67 nM. For the same compound, the CC50 (HeLa-APL) was 29 nM and the “HELA-APL TGI” value (HeLa-APL) was 6.03E−09.

With `Cl.Nc1nccc(-c2c3c(Cl)ccnc3n3c(N)nccc23)n1` [Compound 83] the GI50 (DU-145) was 621 nM, the CC50 (DU-145) was 8320 nM and the “DU-145 TGI” value (DU-145) was 1.49E−06. The GI50 (HT-29) was 1370 nM, the CC50 (HT-29) was 26000 nM and the “HT-29 TGI” value (HT-29) was 3.90E−06. For the same compound, the GI50 (A-549) was 757 nM, the CC50 (A-549) was 8660 nM and the “A-549 TGI” value (A-549) was 1.57E−06. For the same compound, the GI50 (LoVo-Dox) was 803 nM, the CC50 (LoVo-Dox) was 17800 nM and the “LOVO-DOX TGI” value (LoVo-Dox) was 1.72E−06. For the same compound, the GI50 (HeLa) was 47.8 nM, the “HELA TGI” value (HeLa) was 1.38E−07 and the GI50 (LNCaP) was 424 nM. The CC50 (LNCaP) was 1520 nM, the “LN-caP TGI” value (LNCaP) was 8.03E−07 and the GI50 (IGROV-ET) was 1080 nM. The CC50 (IGROV-ET) was 26000 nM, the “IGROV-ET TGI” value (IGROV-ET) was 2.29E−06 and the GI50 (SK-MEL-28) was 1320 nM. The CC50 (SK-MEL-28) was 11800 nM, the “MEL-28 TGI” value (SK-MEL-28) was 3.64E−06 and the GI50 (SK-BR-3) was 575 nM. The CC50 (SK-BR-3) was 1920 nM, the “SK-BR-3 TGI” value (SK-BR-3) was 1.05E−06 and the GI50 (PANC-1) was 1950 nM. For the same compound, the CC50 (PANC-1) was 26000 nM, the “PANC-1 TGI” value (PANC-1) was 1.07E−05 and the GI50 (IGROV-1) was 998 nM. For the same compound, the CC50 (IGROV-1) was 26000 nM, the “IGROV TGI” value (IGROV-1) was 3.17E−06 and the GI50 (K-562) was 2600 nM. For the same compound, the CC50 (K-562) was 26000 nM, the “K-562 TGI” value (K-562) was 1.73E−05 and the GI50 (LoVo) was 471 nM. The CC50 (LoVo) was 2090 nM, the “LOVO TGI” value (LoVo) was 9.90E−07 and the GI50 (HeLa-APL) was 47.8 nM. The CC50 (HeLa-APL) was 257 nM and the “HELA-APL TGI” value (HeLa-APL) was 1.11E−07.
